Patent US20230265151A1, “GIP/GLP1 CO-AGONIST COMPOUNDS” (priority 2020, published 2023)
Read-outs that look alike come from different tables or passages of the source.

Tests used:
Assay type in all cases: cell-based
hGCGR = biological target: T1, hGCGR (Homo sapiens, UniProt P47871); test: Functional cAMP formation (HTRF) in HEK-293 clonal cells expressing hGCGR, 0.1% bovine casein, without or with 1.0% human serum albumin; settings: cAMP, 37° C.
T1 construct: expressed in transfected cells
How it was run: (§1)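 Readings of the HTRF 665/620 nm ratio, which falls as cAMP rises, were converted to nM cAMP using a standard curve after 30 min peptide exposure at 37° C.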

hGLP-1R = hGLP-1R (Homo sapiens, UniProt P43220); test: Functional cAMP formation (HTRF) in HEK-293 clonal cells expressing hGLP-1R, 0.1% bovine casein, without or with 1.0% human serum albumin; design: expressed in transfected cells; settings: for EC50: cAMP, 37° C., 0.1% bovine casein (no human serum albumin), geometric mean
hGLP-1R, sequence (P43220 24-463): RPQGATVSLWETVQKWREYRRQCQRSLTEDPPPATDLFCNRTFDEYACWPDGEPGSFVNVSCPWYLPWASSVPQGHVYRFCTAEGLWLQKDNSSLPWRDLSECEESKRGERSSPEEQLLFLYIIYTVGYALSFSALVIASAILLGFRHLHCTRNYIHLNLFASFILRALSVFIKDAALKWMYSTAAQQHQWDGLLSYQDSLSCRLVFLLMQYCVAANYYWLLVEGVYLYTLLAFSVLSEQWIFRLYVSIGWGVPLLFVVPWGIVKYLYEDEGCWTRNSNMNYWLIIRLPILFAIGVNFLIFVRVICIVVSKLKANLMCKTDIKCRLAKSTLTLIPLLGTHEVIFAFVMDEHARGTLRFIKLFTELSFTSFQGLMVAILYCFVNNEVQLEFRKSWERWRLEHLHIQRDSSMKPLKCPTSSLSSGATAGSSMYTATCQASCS
How it was run: as §1

hGIPR = biological target: T2, hGIPR (Homo sapiens, UniProt P48546); test: Functional cAMP formation (HTRF) in HEK-293 clonal cells expressing hGIPR, 0.1% bovine casein, without or with 1.0% human serum albumin; settings: for Emax: percent of maximal response to GIP(1-42)NH2; for EC50: cAMP, 0.1% bovine casein (no human serum albumin), geometric mean
T2 construct: expressed in transfected cells
T2 sequence (P48546 22-466): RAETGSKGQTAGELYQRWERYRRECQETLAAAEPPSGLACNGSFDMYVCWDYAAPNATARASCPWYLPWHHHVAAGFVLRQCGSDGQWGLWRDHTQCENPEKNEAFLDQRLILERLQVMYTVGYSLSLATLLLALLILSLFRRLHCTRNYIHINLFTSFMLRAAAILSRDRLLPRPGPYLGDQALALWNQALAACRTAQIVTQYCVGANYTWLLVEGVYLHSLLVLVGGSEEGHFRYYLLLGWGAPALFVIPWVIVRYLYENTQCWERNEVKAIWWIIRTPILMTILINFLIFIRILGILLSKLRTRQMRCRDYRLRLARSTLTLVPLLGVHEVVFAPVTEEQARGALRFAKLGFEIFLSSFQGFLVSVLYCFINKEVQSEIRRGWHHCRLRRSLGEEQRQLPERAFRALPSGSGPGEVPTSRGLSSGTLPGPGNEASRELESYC
How it was run: as §1

T1 sequence (P47871 26-477): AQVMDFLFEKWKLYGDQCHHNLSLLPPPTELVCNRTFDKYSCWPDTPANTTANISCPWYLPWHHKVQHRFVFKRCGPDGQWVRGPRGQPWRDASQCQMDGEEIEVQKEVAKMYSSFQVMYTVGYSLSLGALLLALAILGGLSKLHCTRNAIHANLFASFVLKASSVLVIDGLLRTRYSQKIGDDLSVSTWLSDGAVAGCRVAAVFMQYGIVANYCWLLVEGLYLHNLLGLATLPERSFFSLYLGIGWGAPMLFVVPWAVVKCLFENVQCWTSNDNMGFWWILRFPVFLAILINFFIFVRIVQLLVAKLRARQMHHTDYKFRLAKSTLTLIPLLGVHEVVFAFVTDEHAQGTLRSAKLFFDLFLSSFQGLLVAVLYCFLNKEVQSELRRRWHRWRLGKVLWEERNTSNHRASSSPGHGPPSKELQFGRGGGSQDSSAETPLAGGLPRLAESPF

CC[C@H](C)[C@H](NC(=O)[C@H](CC(C)C)NC(=O)[C@](C)(Cc1ccc(O)cc1)NC(=O)[C@@H](CCC(=O)O)NC(=O)[C@@H](NC(=O)[C@H](Cc1ccccc1)NC(=O)[C@H](CCC(=O)O)NC(=O)C(C)(C)NC(=O)[C@H](CCC(N)=O)NC(=O)[C@H](C)NC(=O)[C@H](CCCCNC(=O)COCCOCCNC(=O)COCCOCCNC(=O)CCCCCCCCCCCCC(=O)O)NC(=O)[C@H](CCCN)NC(=O)[C@H](CC(=O)O)NC(=O)[C@H](CC(C)C)NC(=O)[C@](C)(CC(C)C)NC(=O)[C@@H](NC(=O)C(C)(C)NC(=O)[C@H](Cc1ccncc1)NC(=O)[C@H](CC(=O)O)NC(=O)[C@H](CO)NC(=O)[C@@H](NC(=O)[C@](C)(Cc1ccccc1F)NC(=O)[C@@H](NC(=O)CNC(=O)[C@H](CCC(=O)O)NC(=O)C(C)(C)NC(=O)[C@@H](N)Cc1ccc(O)cc1)[C@@H](C)O)[C@@H](C)O)[C@@H](C)CC)[C@@H](C)CC)C(=O)N[C@@H](CCCCNC(=O)COCCOCCNC(=O)COCCOCCNC(=O)CCCCCCCCCCCCC(=O)O)C(=O)NCC(=O)NCC(=O)N1CCC[C@H]1C(=O)N[C@@H](CO)C(=O)N[C@@H](CO)C(=O)NCC(=O)N[C@@H](C)C(=O)N1CCC[C@H]1C(=O)N1CCC[C@H]1C(=O)N1CCC[C@H]1C(=O)N[C@@H](CO)C(N)=O [Example 387]
EC50 (hGCGR; 0.1% bovine casein (no human serum albumin), geometric mean, read-out: hGCGR EC50, nM (SEM, n)): > 9950 nM
EC50 (hGCGR; 0.1% bovine casein and 1.0% human serum albumin, geometric mean (SEM, n), read-out: hGCGR EC50, nM (SEM, n)): > 9950 nM
EC50 (hGLP-1R; read-out: hGLP-1R EC50, nM (SEM, n)): 0.32 nM
Emax (hGIPR; HEK293, cAMP, 37° C., 0.1% bovine casein and 1.0% human serum albumin, read-out: hGIPR Emax, % ± SEM): 93%
EC50 (hGIPR; 37° C., read-out: hGIPR EC50, nM (SEM, n)): 0.0137 nM

CC[C@H](C)[C@H](NC(=O)[C@H](CC(C)C)NC(=O)[C@](C)(Cc1ccc(O)cc1)NC(=O)[C@@H](CCC(=O)O)NC(=O)[C@@H](NC(=O)[C@H](Cc1ccccc1)NC(=O)[C@H](CCCCNC(=O)COCCOCCNC(=O)CC[C@H](NC(=O)CCCCCCCCCOc1ccc(C(=O)O)cc1)C(=O)O)NC(=O)C(C)(C)NC(=O)[C@H](CCC(N)=O)NC(=O)[C@H](C)NC(=O)[C@H](CCCCNC(=O)COCCOCCNC(=O)CC[C@H](NC(=O)CCCCCCCCCOc1ccc(C(=O)O)cc1)C(=O)O)NC(=O)[C@H](CCCN)NC(=O)[C@H](CC(=O)O)NC(=O)[C@H](CC(C)C)NC(=O)[C@](C)(CC(C)C)NC(=O)[C@@H](NC(=O)C(C)(C)NC(=O)[C@@H](NC(=O)[C@H](CC(=O)O)NC(=O)[C@H](CO)NC(=O)[C@@H](NC(=O)[C@](C)(Cc1ccccc1F)NC(=O)[C@@H](NC(=O)CNC(=O)[C@H](CCC(=O)O)NC(=O)C(C)(C)NC(=O)[C@@H](N)Cc1ccc(O)cc1)[C@@H](C)O)[C@@H](C)O)C(C)C)[C@@H](C)CC)[C@@H](C)CC)C(=O)N[C@@H](CCC(=O)O)C(=O)NCC(=O)NCC(=O)N1CCC[C@H]1C(=O)N[C@@H](CO)C(=O)N[C@@H](CO)C(=O)NCC(=O)N[C@@H](C)C(=O)N1CCC[C@H]1C(=O)N1CCC[C@H]1C(=O)N1CCC[C@H]1C(=O)N[C@@H](CO)C(N)=O [Example 378]
EC50 (hGCGR; hGCGR EC50, nM (SEM, n), 0.1% bovine casein (no human serum albumin), geometric mean): > 9950 nM
EC50 (hGCGR; hGCGR EC50, nM (SEM, n), 0.1% bovine casein and 1.0% human serum albumin, geometric mean (SEM, n)): > 9950 nM
Emax (hGLP-1R; HEK293, read-out: hGLP-1R Emax, % ± SEM, cAMP, 37° C., 0.1% bovine casein, percent of maximal response to GLP-1(7-36)NH2, arithmetic mean): 98.9%
EC50 (hGLP-1R; hGLP-1R EC50, nM (SEM, n)): 0.166 nM
Emax (hGIPR; HEK293, read-out: hGIPR Emax, % ± SEM, cAMP, 37° C., 0.1% bovine casein and 1.0% human serum albumin): 81.2%
Emax (hGIPR; HEK293, read-out: hGIPR Emax, % ± SEM, cAMP, 37° C., 0.1% bovine casein, arithmetic mean): 93.5%
EC50 (hGIPR; hGIPR EC50, nM (SEM, n), 37° C.): 0.0132 nM
